System: EpidermFT™ Skin Model (EFT-400) full thickness skin cultures
Assay: Affymetrix GeneChip HG U133 Plus 2.0 microarray global gene expression, agent-exposed vs untreated skin cultures
Format: cell-based, human
Conditions: 24 hr; for Direction / Fold change: Salicin 0.5%
[1] = 210424_s_at GOLGA8A /// GOLGA8B

For `OCc1ccccc1O[C@@H]1O[C@H](CO)[C@@H](O)[C@H](O)[C@H]1O` [Salicin, 2-(Hydroxymethyl)phenyl β-D-glucospyranoside], the “Fold change SPTLC2 (203128_at)” value (0.5% vs untreated, down) was 3.78, the “Fold change SPTLC2 (225095_at)” value (0.5% vs untreated, down) was 3.474 and the “Fold change ST14 (216905_s_at)” value (0.5% vs untreated, down) was 3.604. The “Fold change STARD5 (213820_s_at)” value (0.5% vs untreated, down) was 3.436, the “Fold change STON2 (227461_at)” value (0.5% vs untreated, down) was 3.288 and the “Fold change STOX2 (231969_at)” value (0.5% vs untreated, down) was 3.5. The “Fold change STYK1 (220030_at)” value (0.5% vs untreated, down) was 3.584, the “Fold change SYK (207540_s_at)” value (0.5% vs untreated, down) was 3.163 and the “Fold change SYNE2 (202761_s_at)” value (0.5% vs untreated, down) was 3.62. The “Fold change SYTL1 (227134_at)” value (0.5% vs untreated, down) was 3.294, the “Fold change TACC2 (211382_s_at)” value (0.5% vs untreated, down) was 3.335 and the “Fold change TGFA (205015_s_at)” value (0.5% vs untreated, down) was 3.134. The “Fold change TGM3 (206004_at)” value (0.5% vs untreated, down) was 3.783, the “Fold change THBD (203887_s_at)” value (0.5% vs untreated, down) was 3.137 and the “Fold change TIAM1 (206409_at)” value (0.5% vs untreated, down) was 3.792. For the same molecule, the “Fold change TM7SF3 (217974_at)” value (0.5% vs untreated, down) was 3.241, the “Fold change TMEM54 (225536_at)” value (0.5% vs untreated, down) was 3.354 and the “Fold change TMEM184A (1558281_a_at)” value (0.5% vs untreated, down) was 3.052. For the same molecule, the “Fold change TPD52L1 (203786_s_at)” value (0.5% vs untreated, down) was 3.196, the “Fold change TRIM7 (223694_at)” value (0.5% vs untreated, down) was 3.302 and the “Fold change TRIM7 (239694_at)” value (0.5% vs untreated, down) was 3.174. The “Fold change TRIM14 (203147_s_at)” value (0.5% vs untreated, down) was 3.14, the “Fold change TRIM14 (203148_s_at)” value (0.5% vs untreated, down) was 3.658 and the “Fold change TRIM25 (224806_at)” value (0.5% vs untreated, down) was 3.869. The “Fold change TST (209605_at)” value (0.5% vs untreated, down) was 3.038, the “Fold change UBL3 (201534_s_at)” value (0.5% vs untreated, down) was 3.354 and the “Fold change UGT1A1 /// UGT1A10 /// UGT1A4 /// UGT1A6 /// UGT1A8 /// UGT1A9 (207126_x_at)” value (0.5% vs untreated, down) was 3.18. For the same molecule, the “Fold change UPK1B (210065_s_at)” value (0.5% vs untreated, down) was 3.412, the “Fold change USP2 (229337_at)” value (0.5% vs untreated, down) was 3.391 and the “Fold change USP6NL (238164_at)” value (0.5% vs untreated, down) was 3.19. The “Fold change VAMP8 (202546_at)” value (0.5% vs untreated, down) was 3.922, the “Fold change VWA5A (210102_at)” value (0.5% vs untreated, down) was 3.897 and the “Fold change WNT3 (229103_at)” value (0.5% vs untreated, down) was 3.218. The “Fold change XG (1554062_at)” value (0.5% vs untreated, down) was 3.378, the “Fold change ZBTB7C (227782_at)” value (0.5% vs untreated, down) was 3.288 and the “Fold change ZNF91 (206059_at)” value (0.5% vs untreated, down) was 3.205. The Direction (63825_at ABHD2) was “up”, the Fold change (63825_at ABHD2) was 2.157 and the Direction (201467_s_at NQO1) was “up”. The Fold change (201467_s_at NQO1) was 2.122, the Direction (201468_s_at NQO1) was “up” and the Fold change (201468_s_at NQO1) was 2.093. The Direction (202724_s_at FOXO1) was “up”, the Fold change (202724_s_at FOXO1) was 2.098 and the Direction (202952_s_at ADAM12) was “up”. For the same molecule, the Fold change (202952_s_at ADAM12) was 2.155, the Direction (203066_at GALNAC4S-6ST) was “up” and the Fold change (203066_at GALNAC4S-6ST) was 2.113. For the same molecule, the Direction (203426_s_at IGFBP5) was “up”, the Fold change (203426_s_at IGFBP5) was 2.075 and the Direction (203518_at LYST) was “up”. For the same molecule, the Fold change (203518_at LYST) was 2.15, the Direction (203740_at MPHOSPH6) was “up” and the Fold change (203740_at MPHOSPH6) was 2.138. The Direction (203853_s_at GAB2) was “up”, the Fold change (203853_s_at GAB2) was 2.114 and the Direction (204115_at GNG11) was “up”. The Fold change (204115_at GNG11) was 2.108, the Direction (204396_s_at GRK5) was “up” and the Fold change (204396_s_at GRK5) was 2.087. For the same molecule, the Direction (204420_at FOSL1) was “up”, the Fold change (204420_at FOSL1) was 2.141 and the Direction (204456_s_at GAS1) was “up”. The Fold change (204456_s_at GAS1) was 2.089, the Direction (204742_s_at PDS5B) was “up” and the Fold change (204742_s_at PDS5B) was 2.139. The Direction (204790_at SMAD7) was “up”, the Fold change (204790_at SMAD7) was 2.151 and the Direction (205110_s_at FGF13) was “up”. For the same molecule, the Fold change (205110_s_at FGF13) was 2.158, the Direction (208415_x_at ING1) was “up” and the Fold change (208415_x_at ING1) was 2.15. For the same molecule, the Direction (209436_at SPON1) was “up”, the Fold change (209436_at SPON1) was 2.145 and the Direction (210145_at PLA2G4A) was “up”. For the same molecule, the Fold change (210145_at PLA2G4A) was 2.072, the Direction (210355_at PTHLH) was “up” and the Fold change (210355_at PTHLH) was 2.144. The Direction [1] was “up”, the Fold change [1] was 2.127 and the Direction (210519_s_at NQO1) was “up”. For the same molecule, the Fold change (210519_s_at NQO1) was 2.116, the Direction (210665_at TFPI) was “up” and the Fold change (210665_at TFPI) was 2.091. For the same molecule, the Direction (210841_s_at NRP2) was “up”, the Fold change (210841_s_at NRP2) was 2.133 and the Direction (211725_s_at BID) was “up”. The Fold change (211725_s_at BID) was 2.092, the Direction (211981_at COL4A1) was “up” and the Fold change (211981_at COL4A1) was 2.121. For the same molecule, the Direction (212298_at NRP1) was “up”, the Fold change (212298_at NRP1) was 2.073 and the Direction (212554_at CAP2) was “up”. The Fold change (212554_at CAP2) was 2.082, the Direction (213032_at NFIB) was “up” and the Fold change (213032_at NFIB) was 2.146. The Direction (213033_s_at NFIB) was “up”, the Fold change (213033_s_at NFIB) was 2.125 and the Direction (213093_at PRKCA) was “up”. The Fold change (213093_at PRKCA) was 2.125, the Direction (213790_at ADAM12) was “up” and the Fold change (213790_at ADAM12) was 2.085. The Direction (213994_s_at SPON1) was “up”, the Fold change (213994_s_at SPON1) was 2.086 and the Direction (214014_at CDC42EP2) was “up”. For the same molecule, the Fold change (214014_at CDC42EP2) was 2.119, the Direction (214211_at FTH1) was “up” and the Fold change (214211_at FTH1) was 2.154. The Direction (214913_at ADAMTS3) was “up”, the Fold change (214913_at ADAMTS3) was 2.145 and the Direction (215012_at ZNF451) was “up”. For the same molecule, the Fold change (215012_at ZNF451) was 2.114, the Direction (215785_s_at CYFIP2) was “up” and the Fold change (215785_s_at CYFIP2) was 2.107.

— patent US20120034613A1, “Apparatus and Method for Testing Relationships Between Gene Expression and Physical Appearance of Skin” (NSE Products, Inc., priority 2010, published 2012)
